Where two headings read alike, the source gives them in different places.
Tests used:
tubulin = assay: Inhibition of tubulin polymerization assay; type: biochemical; conditions: read-out: IC50, In Vitro Inhibition of Tubulin Polymerization; purified bovine brain tubulin, 15 min preincubation at 37° C.
Method: IC50 values for tubulin polymerization were determined according to a previously described procedure (Bai et al, Cancer Research, 1996). Purified tubulin is obtained from bovine brain cells as described in Hamel and Lin (Hamel and Lin, Biochemistry, 1984). Various amounts of inhibitor were preincubated for 15 minutes at 37° C. with purified tubulin. After the incubation period, the reaction was cooled and GTP was added to induce tubulin polymerization. Polymerization was then monitored in a Gilford spectrophotometer at 350 nm. The final reaction mixtures (0.25 ml) contained 1.5 mg/ml tubulin, 0.6 mg/ml microtubule-associated proteins (MAPs), 0.5 mM GTP, 0.5 mM MgCl2, 4% DMSO and 0.1M 4-morpholineethanesulfonate buffer (MES, pH 6.4).

SF-295 = assay: Growth inhibition, SF-295 CNS cancer cell line (SRB); type: cell-based, human; conditions: 48 hours
Method: (§1) Briefly, the cell suspensions, diluted according to the particular cell type and the expected target cell density (5,000–40,000 cells per well based on cell growth characteristics), were added by pipet (100 μl) to 96-well microtiter plates. Inoculates were allowed a preincubation time of 24–28 hours at 37° C. for stabilization. Incubation with the inhibitor compounds lasted for 48 hours in 5% CO2 atmosphere and 100% humidity. Determination of cell growth was performed by in situ fixation of cells, followed by staining with a protein-binding dye sulforhodamine B (SRB), which binds to the basic amino acids of cellular macromolecules. The solubilized stain was measured spectrophotometrically.
(§2) Several compounds were evaluated for cytotoxic activity against […] P388 leukemia cell lines. […] These and additional compounds were evaluated in terms of growth inhibitory activity against several other human cancer cell lines including: central nervous system (“CNS”, SF-295), pancreas (BXPC-3), non-small cell lung cancer (“lung-NSC”, NCI-H460), breast (MCF-7), colon (KM20L2), and prostate (DU-145).

BXPC-3 = assay: Growth inhibition, BXPC-3 pancreas cancer cell line (SRB); type: cell-based, human; conditions: 48 hours
Method: as §1, §2

NCI-H460 = assay: Growth inhibition, NCI-H460 non-small cell lung cancer cell line (SRB); type: cell-based, human; conditions: lung-NSC, 48 hours
Method: as §1, §2

MCF-7 = assay: Growth inhibition, MCF-7 breast cancer cell line (SRB); type: cell-based, human; conditions: 48 hours
Method: as §1, §2

KM20L2 = assay: Growth inhibition, KM20L2 colon cancer cell line (SRB); type: cell-based, human; conditions: 48 hours
Method: as §1, §2

DU-145 = assay: Growth inhibition, DU-145 prostate cancer cell line (SRB); type: cell-based, human; conditions: 48 hours
Method: as §1, §2

[1] = system: murine hemangioendothelioma MHEC-5T cell line; assay: In vitro antiproliferative activity, MTT assay; type: cell-based
Method: The following compounds were tested for in vitro antiproliferative activity against the murine hemangioendothelioma MHEC-5T cell line using a standard MTT assay (see Mosman, J. Immunol. Methods, 1983). In actively proliferating cells, an increase in MTT conversion is spectrophotometrically quantified by the reduction of MTT (3-[4,5-dimethylthiazol-2-yl]-2,5-diphenyl tetrazolium bromide) to the insoluble formazan dye by enzymes associated with metabolic activity. A compound with growth inhibitory activity will cause a reduction in dye formation relative to cells exposed to a vehicle control.

[2] = system: MHEC-5T hemangioendothelioma tumor; assay: Inhibition of tumor blood flow, Fluorescent Bead Assay; type: in vivo, SCID mice; conditions: for % VAPM (vessel area per tumor tissue area as a percentage of the control) / % VNPM (vessel number per tumor tissue area as a percentage of the control): 24 hours post-treatment
Method: The antivascular effects of the C-5 dihydronaphthalene phosphate prodrug Oxi-com 197, 43 was assessed in tumor-bearing mice using a Fluorescent Bead Assay. A MHEC-5T hemangioendothelioma tumor model was established by subcutaneous injection of 0.5×10^6 cultured transformed cell murine myocardial vascular endothelial cell line (“MHEC5-T”) cells into the right flank of Fox Chase CB-17 Severe Combined Immunodeficient (“SCID”) mice. When transplanted tumors reached a size of 500 mm^3 (a size without development of necrosis), the mice received a single intraperitoneal (i.p.) injection of saline control or compound at doses ranging from 3.2 to 25 mg/kg. At 24 hours post-treatment, mice were injected intravenously with 0.25 ml of diluted FluoSphere beads (1:6 in physiological saline) in the tail vein, sacrificed after 3 minutes, and tumor was excised for cryosectioning. Tumor cryosections at a thickness of 8 um were directly examined using quantitative fluorescent microscopy. Blood vessels were indicated by blue fluorescence from injected beads. For quantification, image analysis of 3 sections from three tumors treated in each group were examined and vascular shutdown was expressed as vessel area (mm^2) per tumor tissue area (mm^2) as a percentage of the control (“% VAPM”) and as vessel number per tumor tissue area (mm^2) as a percentage of the control (“% VNPM”). The results as shown in Table 11 indicate a clear dose-dependent effect of the agent on tumor blood flow as indicated by the reduction in blood vessel number and vessel area. Administration of a 25 mg/kg dose of Oxi-com 197 was particularly effective, causing a 90% reduction in tumor vessel number relative to the control.
Additional compounds of the present invention were tested for antivascular effects at two dosages (100 mg/kg and 10 mg/kg) using the same Fluorescent Bead Assay as in the previous experiment.

[3] = system: MDA-MB-231 human breast adenocarcinoma; assay: Tumor growth control in vivo; set-up: species or system SCID mice
Method: The antitumor activity of C-5 dihydronaphthalene phosphate prodrug, Oxi-com 197, was assessed in tumor-bearing mice by measuring its effects on tumor volume in comparison with CA4P. A human breast adenocarcinoma model was established by subcutaneous injection of cultured MDA-MB-231 cells in Fox Chase CB-17 SCID mice. When the average tumor size reached 50–100 mm^3, mice were randomly divided into several groups (n=10) with no significant difference in body weight and tumor size. Mice were administered CA4P or Oxi-com 197 in saline carrier at doses of 25, 50 or 100 mg/kg by daily intraperitoneal (i.p.) injection for 5 consecutive days (Q1×5). Saline carrier only was used as the control treatment. On Day 3, 7, 10, 13, 17 and 23, tumors were excised from animals in each treatment group (n=2) and measured by width and length. Tumor volume was calculated according to the following formula: Length×Width^2×0.4. The dosage effects of Oxi-com 197 is illustrated in FIG. 14.

[4] = 5 days, read-out: IC50 at 5 days
[5] = read-out: IC50 at 1 hour, 1 hour

SMILES: CCOP(=O)(Nc1c(OC)ccc2c1CCC=C2c1cc(OC)c(OC)c(OC)c1)OCC [Oxi-com 143, 6-methoxy-1-(3′,4′,5′-trimethoxyphenyl)-5-diethylphosphoramidate-3,4-dihydronapthalene]
- IC50 (tubulin): > 40000 nM

SMILES: COc1cc2c(cc1O)C(c1cc(OC)c(OC)c(OC)c1)=CCC2 [Oxi-com 158]
- GI50 for Cell Line SF-295 (SF-295): 5.4 µg/mL
- GI50 for Cell Line BXPC-3 (BXPC-3): 1.8 µg/mL
- GI50 for Cell Line NCI-H460 (NCI-H460): 3.2 µg/mL
- GI50 for Cell Line MCF-7 (MCF-7): 1.5 µg/mL
- GI50 for Cell Line KM20L2 (KM20L2): 2.6 µg/mL
- GI50 for Cell Line DU-145 (DU-145): 3.4 µg/mL

SMILES: COc1cc(C2=CCCc3c2ccc(OC)c3OP(=O)([O-])[O-])cc(OC)c1OC.[Na+].[Na+] [Oxi-com 197]
- GI50 for Cell Line SF-295 (SF-295): 0.0033 µg/mL
- GI50 for Cell Line BXPC-3 (BXPC-3): 0.28 µg/mL
- GI50 for Cell Line NCI-H460 (NCI-H460): 0.011 µg/mL
- GI50 for Cell Line MCF-7 (MCF-7): 0.0045 µg/mL
- GI50 for Cell Line KM20L2 (KM20L2): 0.33 µg/mL
- GI50 for Cell Line DU-145 (DU-145): 0.0055 µg/mL
- IC50 [1, 4]: 3 nM
- IC50 [1, 5]: 100 nM
- % VAPM (vessel area per tumor tissue area as a percentage of the control) ([2]; 6.3 mg/kg single i.p.): 65.4 ± 4.9%
- % VNPM (vessel number per tumor tissue area as a percentage of the control) ([2]; 6.3 mg/kg single i.p.): 66.5 ± 0.5%
- % VAPM (vessel area per tumor tissue area as a percentage of the control) ([2]; 12.5 mg/kg single i.p.): 32.2 ± 6.8%
- % VNPM (vessel number per tumor tissue area as a percentage of the control) ([2]; 12.5 mg/kg single i.p.): 55.5 ± 0.8%
- reduction in tumor vessel number relative to the control ([2]; 25 mg/kg dose): 90%
- % VAPM (vessel area per tumor tissue area as a percentage of the control) ([2]; 25 mg/kg single i.p.): 13.0 ± 5.0%
- % VNPM (vessel number per tumor tissue area as a percentage of the control) ([2]; 25 mg/kg single i.p.): 10.4 ± 6.3%
- tumor growth (tumor volume) relative to control treatment ([3]; 25, 50, and 100 mg/kg i.p. daily for 5 days (Q1×5)): significantly inhibited tumor growth
- antitumor activity relative to CA4P ([3]; MDA-MB-231 model, i.p. Q1×5): enhanced antitumor activity relative to CA4P

SMILES: COc1cc(C2=CCCc3c2cc(OP(=O)(O)O)c(OC)c3OP(=O)(O)O)cc(OC)c1OC [Oxi-com 199]
- IC50 (tubulin): > 40000 nM
- IC50 [1, 4]: > 44800 nM
- IC50 [1, 5]: > 44800 nM

SMILES: COc1cc(C2=CCCc3c2cc(O)c(OC)c3O)cc(OC)c1OC [Oxi-com 200]
- IC50 [1, 4]: 16200 nM
- IC50 [1, 5]: > 50000 nM

SMILES: COc1cc(C(=O)C2=CCCc3c2ccc(OC)c3OP(=O)([O-])[O-])cc(OC)c1OC.[Na+].[Na+] [Oxi-com 224]
- IC50 [1, 4]: 3 nM
- IC50 [1, 5]: 400 nM
- % VAPM at 10 mg/kg dose [2]: 17%
- % VAPM at 100 mg/kg dose [2]: 46%

SMILES: COc1cc(C(=O)c2cccc3c(OP(=O)([O-])[O-])c(OC)ccc23)cc(OC)c1OC.[Na+].[Na+] [Oxi-com 225]
- IC50 [1, 4]: 5 nM
- IC50 [1, 5]: 400 nM
- % VAPM at 10 mg/kg dose [2]: 35%
- % VAPM at 100 mg/kg dose [2]: 60%

SMILES: COc1ccc2c(c1NC(=O)[C@@H](N)CO)CCC=C2c1cc(OC)c(OC)c(OC)c1 [Oxi-com 229]
- IC50 [1, 4]: > 1400 nM
- IC50 [1, 5]: > 44000 nM

SMILES: COc1ccc(C2=CCCc3c2ccc(OC)c3O)c(OC)c1 [Oxi-com 238]
- IC50 [1, 4]: 40 nM
- IC50 [1, 5]: 14000 nM

SMILES: COc1ccc(C2=CCCc3c2ccc(OC)c3OP(=O)(O)O)c(OC)c1 [Oxi-com 239]
- IC50 [1, 4]: 60 nM
- IC50 [1, 5]: 2400 nM

SMILES: COc1ccc(OC)c(C2=CCCc3c2ccc(OC)c3O)c1 [Oxi-com 240]
- IC50 [1, 4]: 30 nM
- IC50 [1, 5]: 8000 nM

SMILES: COc1ccc(OC)c(C2=CCCc3c2ccc(OC)c3OP(=O)(O)O)c1 [Oxi-com 241]
- IC50 [1, 4]: 80 nM
- IC50 [1, 5]: 2500 nM

SMILES: COc1ccc(C2=CCCc3c2ccc(OC)c3OP(=O)(O)O)cc1OC [Oxi-com 243]
- IC50 [1, 4]: 300 nM
- IC50 [1, 5]: 20000 nM

Reference: patent publication US7001926B2, “Tubulin binding agents and corresponding prodrug constructs” (Oxigene, Inc., priority 2000, dated 2006)
